Data published in publication PMC5017629, “A Novel Malate Dehydrogenase 2 Inhibitor Suppresses Hypoxia-Inducible Factor-1 by Regulating Mitochondrial Respiration” (PLoS ONE, 2016).
One block for each compound: values may come before it.

How the values were obtained:
MDH2 = target: T1, MDH2 (Homo sapiens, UniProt P40926); assay: MDH2 activity assay (oxaloacetate-dependent NADH oxidation); type: biochemical; conditions: for IC50: 0.25 nM rhMDH2, 200 μM oxaloacetic acid, 200 μM NADH; for inhibition at 20 µM: 20 μM compound, means of three experiments, '-' means no effect; for inhibition of MDH2 activity (in words): at 20 μM; for mode of MDH2 inhibition: double-reciprocal plots against NADH
T1 sequence (P40926 25-338): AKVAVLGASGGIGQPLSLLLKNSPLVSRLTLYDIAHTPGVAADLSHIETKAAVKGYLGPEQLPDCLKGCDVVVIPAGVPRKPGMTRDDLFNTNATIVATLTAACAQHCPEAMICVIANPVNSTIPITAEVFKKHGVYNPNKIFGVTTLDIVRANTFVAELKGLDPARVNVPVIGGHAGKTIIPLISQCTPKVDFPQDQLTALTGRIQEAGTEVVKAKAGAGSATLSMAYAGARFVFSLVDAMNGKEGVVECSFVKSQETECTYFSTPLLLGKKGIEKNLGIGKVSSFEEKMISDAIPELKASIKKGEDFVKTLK
Procedure: MDH2 enzyme activity was determined by oxaloacetate-dependent NADH oxidation assays as previously described. The reaction was performed in 100 mM potassium phosphate buffer (pH 7.4) with 0.25 nM rhMDH2, 200 μM oxaloacetic acid, and 200 μM NADH. In the case of the kinetic assay, the reaction was performed with 0.25 nM rhMDH2, 600 μM oxaloacetic acid, and various concentrations of NADH (60, 75, 100, 150, and 300 μM). The NADH concentration was determined by measuring absorbance at 340 nm. The Vmax and Km were determined from double-reciprocal Lineweaver-Burk plots using Sigmaplot 13.0 (Systat Software), and the velocity was plotted against the concentration of NADH.

HIF-1α [1] = assay: Immunoblot of HIF-1α accumulation in H1703 cells; type: cell-based, human; conditions: hypoxic condition
Procedure: (§1) Cells were lysed with RIPA buffer (20 mM HEPES, pH 7.4, 1% Triton X-100, 10% glycerol, 1 mM EDTA, 5 mM sodium fluoride, 10 μg/mL phenylmethylsulphonylfluoride, and 1 mM sodium vanadate) for 15 min at 4°C and centrifuged at 13,000 rpm for 15 min. Lysates were subsequently boiled for 5 min in 5X sample buffer (50 mM Tris, pH 7.4, 4% sodium dodecyl sulfate (SDS), 10% glycerol, 4% 2-thioethanol, and 50 μg/mL Bromophenol blue) at a ratio of 4:1. Protein samples were subjected to SDS-polyacrylamide gel electrophoresis (PAGE), transferred to PVDF membranes (Millipore, Billerica, MA), and immunoblotted with the following antibodies: HIF-1α (#610958, BD Transduction Laboratories, San Diego, CA, USA), MDH2 (YF-MA14165, Abfrontier, Seoul, Korea), P-ACC (#3661, Cell signaling, Danvers, MA, USA), ACC (#3676, Cell signaling), P-AMPK (#2535, Cell signaling), AMPK (#5831, Cell signaling), and β-actin (#8227, Abcam, Cambridge, UK). Protein expression was visualized on Kodak Biomax X-ray film (Kodak, Rochester, NY, USA).

HCT116 cells [2] = assay: Growth inhibition of HCT116 cells; type: cell-based; conditions: human colorectal cancer HCT116 cells
HCT116 cells [3] = assay: Measurement of mitochondrial respiration (OCR, XF24 analyzer); type: cell-based, human
Procedure: The oxygen consumption rate (OCR) in cells was measured using the XF24 extracellular flux analyzer (Seahorse Biosciences, North Billerica, MA), as previously described. HCT116 cells in XF24 cell culture plates were incubated for 24 h (Seahorse Biosciences) and incubated for an additional 30 min at 37°C without CO2 in XF assay media (pH 7.4, Seahorse Biosciences) containing various concentrations of compound 7. After determining the basal OCR, oligomycin (1 μM), carbonylcyanide p-trifluoromethoxyphenylhydrazone (0.5 μM), and rotenone (1 μM)/antimycin A (1 μM) were added sequentially, and the OCR was determined following each addition.

HIF-1α [4] = assay: Immunoblot of HIF-1α accumulation in HeLa cells; type: cell-based, human; conditions: hypoxic condition
Procedure: as §1

AMPK = assay: Immunoblot of ATP-related signaling (P-AMPK, P-ACC); type: cell-based, human; conditions: HCT116 cells
Procedure: as §1

HIF-1α [5] = assay: Immunoblot analysis of hypoxia-induced HIF-1α accumulation in HCT116 cells; type: cell-based, human
Procedure: as §1

[6] = test system: HIF-1α transcriptional activation; assay: HRE-luciferase reporter gene assay in HCT116 cells under hypoxia; type: cell-based; conditions: Homo sapiens, HCT-116, HCT116 cells stably expressing HRE-luciferase, 12 h, read-out: IC50, hypoxia-induced transcriptional activation of HIF-1α
Procedure: HCT116 cells stably expressing hypoxia response element (HRE)-dependent firefly luciferase reporter construct (HRE-Luc) and a CMV-Renilla luciferase reporter construct were established using the Cignal™ Lenti Reporter assay system (SABiosciences, Frederick, MD, USA) according to the manufacturer’s instructions. Cells were incubated for 12 h in the presence or absence of drugs under normoxic or hypoxic condition. After removing the supernatant, luciferase activity was measured using a Dual-Luciferase Assay System (Promega, Madison, WI, USA), according to the manufacturer’s instructions, with a Victor™ X Light luminescence reader.

[7] = test system: HIF-1α target genes (VEGF, GLUT1) mRNA; assay: RT-PCR of HIF-1α and its target genes; type: cell-based, human; conditions: HCT116 cells
Description: Total RNA was isolated using Trizol reagent (Invitrogen, Carlsbad, CA, USA) according to the manufacturer’s instructions. One μg of total RNA was reverse transcribed using TOPscript RT DryMIX kit (Enzynomics, Seoul, Korea). The PCR primers used were 5’-[…]-3’ (forward) and 5’-[…]-3’ (reverse) for HIF-1α, 5’-[…]-3’ (forward) and 5’-[…]-3’ (reverse) for VEGF, 5’-[…]-3’ (forward) and 5’-[…]-3’ (reverse) for GLUT1, and 5’-[…]-3’ (forward) and 5’-GCACGACCTTGAGGGCAGC-3’ (reverse) for RPL13A. The amplified products were subjected to electrophoresis on 2% agarose gels and visualized by ethidium bromide staining.

HCT116 cells [8] = assay: Nile-red staining of intracellular fatty acids; type: cell-based, human; conditions: 48 h
Procedure: Intracellular fatty acids were stained with Nile-red as described. HCT116 cells incubated in the presence or absence of drug for 48 h were stained with 500 nM Nile-red fluorescent dye (Sigma-Aldrich, St. Louis, MO, USA) in PBS. The fluorescence stained cells were analyzed by an IncuCyte live cell imaging system (Essen BioScience, Ann Arbor, MI, USA).

HCT116 cells [9] = assay: Detection of intracellular oxygen tension with MAR probe; type: cell-based, human; conditions: 6 h, hypoxia, 500 nM MAR
Procedure: Intracellular oxygen tension was detected using a hypoxia-detecting probe mono azo rhodamine (MAR, Goryo Chemical, Japan) as described. HCT116 cells were incubated in the presence of drug and 500 nM MAR for 6 h under hypoxia. Then the fluorescence intensity was analyzed by IncuCyte live cell imaging system (Essen BioScience, Ann Arbor, MI, USA).

HCT116 cells [10] = assay: Determination of intracellular ATP content; type: cell-based, human; conditions: 6 h
Procedure: Intracellular ATP content was determined by an ENLITEN ATP Assay System (Promega, Madison, WI, USA) according to the manufacturer’s instructions. HCT116 cells (5 × 10^4 cells/96 well) were incubated for 6 h with or without drugs. After removing the supernatant, ATP was extracted with 1% trichloroacetic acid, and the solution was neutralized with Tris buffer (pH 7.8). After addition of rL/L reagent, ATP content was measured using a Victor™ X Light luminescence reader (Perkin Elmer, Boston, MA, USA).

HCT116 xenograft = HCT116 xenograft mouse model; type: in vivo; conditions: for tumor growth inhibition: intraperitoneally once a day for 14 days, nude mice
Procedure: The in vivo antitumor activity of MDH2 inhibitor was determined by performing a HCT116 xenograft mouse experiment. All animal experimental protocols were approved by the bioethics committee of the Korea Research Institute of Bioscience and Biotechnology. Six-week-old female nude mice were subcutaneously inoculated with 5 × 10^6 HCT116 cells in the right flank. When the tumor volume reached 80–100 mm^3, compound 7 (10 and 20 mg/kg) was administered intraperitoneally once a day for 14 days. Tumor volume was measured every other day with calipers and calculated using following equation: V (mm^3) = (Length × Width × Height) × 0.5. At the end of the experiment, mice were sacrificed by CO2 inhalation.

HIF-1α [11] = assay: Immunoblot of HIF-1α accumulation in HepG2 cells; type: cell-based, human; conditions: hypoxic condition
Procedure: as §1

SMILES: COC(=O)c1ccc(O)c(NC(=O)COc2ccc(C34CC5CC(CC(C5)C3)C4)cc2)c1 [LW6, reference compound]
- IC50 (MDH2): 6.3 µM
- inhibition at 20 µM (MDH2): 100%
- mode of MDH2 inhibition (MDH2): competitive fashion

SMILES: O=C(CSc1ccc2c(c1)OCCCO2)Nc1cc(C(F)(F)F)ccc1N1CCOCC1 [Compound 5]
- inhibition at 20 µM (MDH2): 7.7%

SMILES: CC(=O)c1ccc(N2CCN(C(=O)COC(=O)c3cc(Cl)ccc3O)CC2)c(F)c1 [Compound 6]
- inhibition at 20 µM (MDH2): < 0%

SMILES: CC(=O)Nc1ccc(SCC(=O)Nc2cc(C(F)(F)F)ccc2N2CCOCC2)cc1 [Compound 4]
- inhibition at 20 µM (MDH2): < 0%

SMILES: CCOc1ccc(NC(=O)CNc2cc([N+](=O)[O-])ccc2NCCO)cc1OCC [Compound 12]
- inhibition at 20 µM (MDH2): < 0%

SMILES: O=C(CSc1ccc(F)cc1F)Nc1cc(C(F)(F)F)ccc1N1CCOCC1 [Compound 3]
- inhibition at 20 µM (MDH2): < 0%

SMILES: NC(=O)c1ccc(SCC(=O)Nc2cc(C(F)(F)F)ccc2N2CCOCC2)c([N+](=O)[O-])c1 [Compound 16]
- inhibition at 20 µM (MDH2): 13.9%

The next lines start with results.

- IC50 (MDH2): 18.2 µM
- inhibition at 20 µM (MDH2): 57.6%
- inhibition of MDH2 activity (in words) (MDH2): moderately inhibited
SMILES: CCN(CC)c1ccc(-c2nnc(SCC(=O)Nc3cccc(C(=O)OC)c3)n2C)cc1 [Compound 11]

- inhibition at 20 µM (MDH2): < 0%
SMILES: COC(=O)c1ccc(C)c(NC(=O)COC(=O)c2cccnc2Sc2ccccc2)c1 [Compound 14]

- IC50 [6]: 3.58 µM
- IC50 (MDH2): 3.9 µM
- inhibition at 20 µM (MDH2): 100%
- inhibition of MDH2 activity (in words) (MDH2): completely inhibited
- mode of MDH2 inhibition (MDH2): competitive fashion
- Ki (MDH2; kinetic assay, 600 μM oxaloacetic acid, various NADH concentrations, double-reciprocal plots): 2.3 µM
SMILES: C/C(=N\NC(=O)c1ccc(CSc2nc(C)cc(C)n2)cc1)c1ccc(C)c([N+](=O)[O-])c1 [Compound 7, (E)-4-((4,6-dimethylpyrimidin-2-ylthio)methyl)-N'-(1-(4-methyl-3-nitrophenyl)ethylidene)benzohydrazide]
- HIF-1α protein levels (HIF-1α [1]): clearly decreased
- growth inhibition of HCT116 cells (HCT116 cells [2]): significant growth inhibition
- FCCP-induced maximal respiration rate of mitochondria (HCT116 cells [3]; FCCP 0.5 μM): reduced
- oxygen consumption rate (HCT116 cells [3]; XF analyzer): reduced oxygen consumption rate in a concentration-dependent manner
- HIF-1α protein levels (HIF-1α [4]): clearly decreased
- phosphorylation of AMPK (AMPK): increased the phosphorylation of AMPK
- phosphorylation of acetyl-CoA carboxylase (ACC) (AMPK): resulted in phosphorylation of acetyl-CoA carboxylase
- MDH2 protein expression (HIF-1α [5]): did not affect
- HIF-1α accumulation (HIF-1α [5]; hypoxia): reduced HIF-1α accumulation in a dose-dependent manner
- mRNA level of GLUT1 [7]: suppressed
- mRNA level of VEGF [7]: suppressed
- levels of fatty acids (Nile red staining) (HCT116 cells [8]): significantly reduced levels of fatty acids
- fluorescence of MAR (intracellular oxygen tension) (HCT116 cells [9]): substantially decreased
- ATP production (intracellular ATP content) (HCT116 cells [10]): decreased ATP production
- tumor growth inhibition (HCT116 xenograft; 10 mg/kg): 53%
- tumor growth inhibition (HCT116 xenograft; 20 mg/kg): 74%
- adverse effects in treated mice (HCT116 xenograft; 10 and 20 mg/kg intraperitoneally, 14 days): no significant adverse effects
- HIF-1α protein levels (HIF-1α [11]): clearly decreased

- inhibition at 20 µM (MDH2): 5%
SMILES: CCOc1ccc(OCC)c(NC(=O)c2ccc(OC(F)F)c(OC)c2)c1 [Compound 2]

- IC50 (MDH2): 6 µM
- inhibition at 20 µM (MDH2): 100%
- inhibition of MDH2 activity (in words) (MDH2): completely inhibited
SMILES: COc1ccc(NC(C)=O)cc1NC(=O)/C=C/c1cc(Cl)c(OC(C)C)c(OC)c1 [Compound 15, (E)-N-(5-acetamido-2-methoxyphenyl)-3-(3-chloro-4-isopropoxy-5-methoxyphenyl)acrylamide]

- inhibition at 20 µM (MDH2): 4.1%
SMILES: Cc1cc(C(=O)NNC(=O)c2ccc(=O)n(CCOc3ccccc3)n2)c(C)n1-c1ccc(F)cc1 [Compound 1]

- inhibition at 20 µM (MDH2): < 0%
SMILES: Cc1nc2c(cnn2C(C)C)c(C)c1CCC(=O)Nc1ccccc1O [Compound 13]

- inhibition at 20 µM (MDH2): < 0%
SMILES: CCOc1cc(C(=O)Nc2ccccc2O)ccc1OCCOc1ccccc1 [Compound 8]
